Measured values as given in patent publication US10334854B2, “Herbicide combinations comprising glufosinate and indaziflam” (BAYER CROPSCIENCE AKTIENGESELLSCHAFT, priority 2016, dated 2019).

Columns and labels:
[1] = tested on: monocotyledonous and dicotyledonous harmful plant species; conditions: stated as known; cited from earlier work
Lolium multiflorum = experiment: Greenhouse pot trial, post-emergence herbicidal activity; assay type: in vivo; conditions: single post-emergence treatment, 12 g/ha of indaziflam, BBCH growth stage 11-12
Method: (§1) In separate pots, biological trials were conducted in the greenhouse under identical conditions (apart from the treatment with the different products P1 and P2 mentioned above). Each pot contained the same soil and the same amount of seeds of each of the following weeds (two monocotyledonous and two dicotyledonous harmful plant species (weed species)):
(§2) Tables 1 to 4 reflect the respective observed herbicidal activity ratings after treatment of the monocotyledonous harmful plant species (BBCH growth stage 11) and dicotyledonous harmful plant species (BBCH growth stage 10) for the different products applied once in post-emergence.
(§3) The observation period in each case was 40 days after start of treatment with the respective products P1 and P2 mentioned above, both in amounts of 3 L/ha and 5 L/ha, respectively.
(§4) Tables 5 to 8 reflect the respective observed herbicidal activity ratings after treatment of the monocotyledonous harmful plant species (BBCH growth stage 12-13) and dicotyledonous harmful plant species (BBCH growth stage 12) for the different products applied once in post-emergence. The observation period in each case was 40 days after start of treatment with the respective products P1 and P2 mentioned above, both in amounts of 3 L/ha and 5 L/ha, respectively.
(§5) Table 9 reflects the post-emergence efficacy of indaziflam [the ratio by weight of the (1*R)-1-fluoroethyl diastereoisomer of indaziflam to the ratio by weight of the (1*S)-1-fluoroethyl diastereoisomer of indaziflam was about 95:5] on the above mentioned weeds (two monocotyledonous and two dicotyledonous harmful plant species (weed species)) AMARE, STEME, LOLMU and POOAN, each at BBCH growth stage 11-12. Indaziflam was used in an amount of 12 g/ha.

Amaranthus retroflexus = experiment: as above; assay type: in vivo; conditions: single post-emergence treatment, 12 g/ha of indaziflam, BBCH growth stage 11-12
Method: as §1, §2, §3, §4, §5

Stellaria media = experiment: as above; assay type: in vivo; conditions: single post-emergence treatment, 12 g/ha of indaziflam, BBCH growth stage 11-12
Method: as §1, §2, §3, §4, §5

Poa annua = experiment: as above; assay type: in vivo; conditions: single post-emergence treatment, 12 g/ha of indaziflam, BBCH growth stage 11-12
Method: as §1, §2, §3, §4, §5

Cc1ccc2c(c1)[C@H](Nc1nc(N)nc([C@@H](C)F)n1)[C@@H](C)C2 (mixture of isomers) [indaziflam, N^2-[(1R,2S)-2,3-dihydro-2,6-dimethyl-1H-inden-1-yl]-6-[(1RS)-1-fluoroethyl]-1,3,5-triazine-2,4-diamine]
post-emergence efficacy [1]: insufficient
Regrowth (ratings of herbicidal activity) (Lolium multiflorum): no herbicidal effect
Regrowth (ratings of herbicidal activity) (Amaranthus retroflexus): very weak herbicidal effect starting on day 7 after treatment
Regrowth (ratings of herbicidal activity) (Stellaria media): no herbicidal effect
Regrowth (ratings of herbicidal activity) (Poa annua): no herbicidal effect
